The results in this text go back to patent publication US7625872B2, “Branched immunomodulatory compounds and methods of using the same” (Dynavax Technologies Corporation, priority 2002, dated 2009).

For this data set, the system named is human PBMC cells. The experiment in a line: human PBMC assay: IFN-γ and IFN-α in cell-free medium by ELISA. It counts as cell-based. Particulars: for IFN-α (pg/ml) 17240 / IFN-γ (pg/ml) 17240: donor 17240; for IFN-α (pg/ml) 17240 / IFN-γ (pg/ml) 17240 / IFN-α (pg/ml) 17241 / IFN-γ (pg/ml) 17241 / IFN-α (pg/ml) 17242 / IFN-γ (pg/ml) 17242 / IFN-α (pg/ml) 17243 / IFN-γ (pg/ml) 17243 / IFN-α (pg/ml) mean: test samples 20 μg/ml, '+ PLGA' = premixed with 100 μg/ml cPLGA; for IFN-α (pg/ml) 17240 / IFN-γ (pg/ml) 17240 / IFN-α (pg/ml) 17241 / IFN-γ (pg/ml) 17241 / IFN-α (pg/ml) 17242 / IFN-γ (pg/ml) 17242 / IFN-α (pg/ml) 17243 / IFN-γ (pg/ml) 17243 / IFN-α (pg/ml) mean / IFN-α +PLGA / IFN-γ +PLGA / IFN-α −PLGA / IFN-γ −PLGA: 24 hours; for IFN-α (pg/ml) 17240 / IFN-γ (pg/ml) 17240 / IFN-α (pg/ml) 17241 / IFN-γ (pg/ml) 17241 / IFN-α (pg/ml) 17242 / IFN-γ (pg/ml) 17242 / IFN-α (pg/ml) 17243 / IFN-γ (pg/ml) 17243: SAC 1/5000 dilution; for IFN-α (pg/ml) 17241 / IFN-γ (pg/ml) 17241: donor 17241; for IFN-α (pg/ml) 17242 / IFN-γ (pg/ml) 17242: donor 17242; for IFN-α (pg/ml) 17243 / IFN-γ (pg/ml) 17243: donor 17243; for IFN-α (pg/ml) mean: mean of 4 donors; for IFN-α +PLGA / IFN-γ +PLGA / IFN-α −PLGA / IFN-γ −PLGA: mean results (Table 4; unit in Table 3); for IFN-α +PLGA / IFN-γ +PLGA: 20 μg/ml formulated with 100 μg/ml cPLGA; for IFN-α −PLGA / IFN-γ −PLGA: compound alone, 20 μg/ml. As to the method:
Peripheral blood was collected from volunteers by venipuncture using heparinized syringes. Blood was layered onto a FICOLL® (Amersham Pharmacia Biotech) cushion and centrifuged. PBMCs, located at the FICOLL® interface, were collected, then washed twice with cold phosphate buffered saline (PBS). The cells were resuspended and cultured in 48 well plates or 96-well plates at 2×10^6 cells/mL at 37° C. in RPMI 1640 with 10% heat-inactivated human AB serum plus 50 units/mL penicillin, 50 μg/mL streptomycin, 300 μg/mL glutamine, 1 mM sodium pyruvate, and 1×MEM non-essential amino acids (NEAA).
The cells were cultured in the absence of test samples, in the presence of test samples at 20 μg/ml (0.5 OD/ml), or in the presence of test samples at 20 μg/ml premixed with 100 μg/ml cationic poly(lactic acid, glycolic acid) microcarriers (cPLGA; see infra) (when used) for 24 hours. Cell-free medium was then collected from each well and assayed for IFN-γ and IFN-α concentrations. SAC (Pansorbin CalBiochem, 1/5000 dilution) was used as a positive control. SAC is Staph. aureus (cowan) cell material.
IFN-γ and IFN-α were assayed using CYTOSCREEN™ ELISA kits from BioSource International, Inc., according to the manufacturer's instructions.
Compound B07 (see Example 1, above) was tested for immunomodulatory activity in human PBMC cells as outlined in Example 9, above. For comparison purposes, the immunomodulatory activities of a variety of polynucleotides and chimeric molecules containing spacer moieties were also assayed. The syntheses and features of immunomodulatory chimeric molecules like compounds C-101, C-124, and C-125 are described in U.S. patent application Ser. No. 10/176,883 entitled, “Chimeric Immunomodulatory Compounds and Methods of Using the Same,” filed on Jun. 21, 2002, herein incorporated by reference. All nucleotide linkages and linkages between NAMs, spacer moieties and branch-point nucleosides in the listed compounds are phosphorothioate esters. HEG=hexaethylene glycol; symmetrical doubler=1,3-diamino-2-propanol; trebler=modified pentaerythritol; T-C6=2′-deoxyuridine; AHA=aminohexyl-3(E)-acrylamido linked at the C-5 position of 2′-deoxyuridine (see FIG. 1A). The compounds were each tested both alone and formulated with cPLGA (see Example 9, supra).
For orientation: An ELISA detects its analyte on a solid surface through an enzyme-linked reagent.

“5′-TGACTGTGAACCTTAGAGATGA-3′ (DNA TGACTGTGAACCTTAGAGATGA; DNA, all phosphorothioate, methylation of C not given here) [P-7]”: the “IFN-α (pg/ml) 17240” value came to 30 pg/mL, the “IFN-γ (pg/ml) 17240” value came to 35 pg/mL, the “IFN-α (pg/ml) 17241” value amounted to 30 pg/mL and the “IFN-γ (pg/ml) 17241” value came to 127 pg/mL. The “IFN-α (pg/ml) 17242” value is 30 pg/mL, the “IFN-γ (pg/ml) 17242” value worked out at 10 pg/mL, the “IFN-α (pg/ml) 17243” value was 30 pg/mL and the “IFN-γ (pg/ml) 17243” value came out at 58 pg/mL. The “IFN-α (pg/ml) mean” value worked out at 30 pg/mL, the “IFN-α +PLGA” value stood at 30 pg/mL, the “IFN-γ +PLGA” value was 34 pg/mL and the “IFN-α −PLGA” value is 30 pg/mL. Also, the “IFN-γ −PLGA” value worked out at 58 pg/mL.

Regarding “5′-TGACTGTGAACGTTCGAGATGA-3′ [P-6]”, the “IFN-α (pg/ml) 17240” value came to 86 pg/mL, the “IFN-γ (pg/ml) 17240” value came to 172 pg/mL, the “IFN-α (pg/ml) 17241” value amounted to 30 pg/mL and the “IFN-γ (pg/ml) 17241” value turned out to be 158 pg/mL. The “IFN-α (pg/ml) 17242” value is 57 pg/mL, the “IFN-γ (pg/ml) 17242” value came to 47 pg/mL, the “IFN-α (pg/ml) 17243” value came out at 30 pg/mL and the “IFN-γ (pg/ml) 17243” value is 77 pg/mL. Also, the “IFN-α (pg/ml) mean” value came out at 51 pg/mL, the “IFN-α +PLGA” value was determined as 295 pg/mL, the “IFN-γ +PLGA” value worked out at 568 pg/mL and the “IFN-α −PLGA” value stood at 51 pg/mL. Moreover, the “IFN-γ −PLGA” value came out at 113 pg/mL.

Regarding “(5-TCGACGT-3′-HEG)2-(T-C6)-AHA-HEG-5′-TCGACGT-3′ [B07]”, the “IFN-α (pg/ml) 17240” value stood at 1080 pg/mL, the “IFN-γ (pg/ml) 17240” value came out at 205 pg/mL, the “IFN-α (pg/ml) 17241” value stood at 122 pg/mL and the “IFN-γ (pg/ml) 17241” value is 108 pg/mL. Moreover, the “IFN-α (pg/ml) 17242” value is 1039 pg/mL, the “IFN-γ (pg/ml) 17242” value is 30 pg/mL, the “IFN-α (pg/ml) 17243” value came to 201 pg/mL and the “IFN-γ (pg/ml) 17243” value is 140 pg/mL. Besides, the “IFN-α (pg/ml) mean” value stood at 610 pg/mL, the “IFN-α +PLGA” value was determined as 7298 pg/mL, the “IFN-γ +PLGA” value came out at 883 pg/mL and the “IFN-α −PLGA” value amounted to 610 pg/mL. The “IFN-γ −PLGA” value worked out at 121 pg/mL. Also, where the note is “PBMC assays, in words”, the “immunomodulatory activity compared with linear polynucleotide P-6” value is recorded as “far superior immunomodulatory activity than the linear polynucleotide P-6”; the “induction of IFN-γ and IFN-α compared with chimeric compounds” value is “activity similar to the immunomodulatory chimeric compounds C-101, C-124, and C-125”.

With “(5′-TAGTCAT-3′-HEG)2-glycerol-HEG-5′-AACCTTC-3′ [M-100]”, the “IFN-α (pg/ml) 17240” value was 30 pg/mL, the “IFN-γ (pg/ml) 17240” value stood at 27 pg/mL, the “IFN-α (pg/ml) 17241” value was 30 pg/mL and the “IFN-γ (pg/ml) 17241” value was found to be 71 pg/mL. Also, the “IFN-α (pg/ml) 17242” value was found to be 30 pg/mL, the “IFN-γ (pg/ml) 17242” value amounted to 10 pg/mL, the “IFN-α (pg/ml) 17243” value amounted to 30 pg/mL and the “IFN-γ (pg/ml) 17243” value was 41 pg/mL. Moreover, the “IFN-α (pg/ml) mean” value came to 30 pg/mL, the “IFN-α +PLGA” value stood at 69 pg/mL, the “IFN-γ +PLGA” value worked out at 136 pg/mL and the “IFN-α −PLGA” value came out at 30 pg/mL. The “IFN-γ −PLGA” value came out at 37 pg/mL.

Take “(5′-TAGTCAT-3′-HEG)2-symmetrical doubler-HEG-5′-TAGTCAT-3′ [M-101]”: the “IFN-α (pg/ml) 17240” value is 39 pg/mL, the “IFN-γ (pg/ml) 17240” value is 24 pg/mL, the “IFN-α (pg/ml) 17241” value amounted to 30 pg/mL and the “IFN-γ (pg/ml) 17241” value is 10 pg/mL. Further, the “IFN-α (pg/ml) 17242” value was found to be 30 pg/mL, the “IFN-γ (pg/ml) 17242” value turned out to be 10 pg/mL, the “IFN-α (pg/ml) 17243” value came out at 30 pg/mL and the “IFN-γ (pg/ml) 17243” value came out at 22 pg/mL. For the same substance, the “IFN-α (pg/ml) mean” value was determined as 32 pg/mL, the “IFN-α +PLGA” value stood at 68 pg/mL, the “IFN-γ +PLGA” value was found to be 92 pg/mL and the “IFN-α −PLGA” value came out at 32 pg/mL. In addition, the “IFN-γ −PLGA” value was found to be 16 pg/mL.
